{
  "source": "patent US6483013B1",
  "about": "“Method for agrobacterium mediated transformation of cotton” (Bayer BioScience N.V., priority 1999, dated 2002)",
  "system": "cotton embryogenic callus",
  "test": "β-glucuronidase (GUS) assay of embryogenic cotton callus after cocultivation with Agrobacterium strain A3311",
  "type": "cell-based, cotton (variety Coker 312)",
  "experimental": "Embryogenic cotton callus was obtained in the following way: Cotton seeds of variety Coker 312 were disinfected using a 12% sodium hypochloride solution, and germinated individually in tubes containing a solution of gelrite 2/g/l H2O and 0.94 g/l MgCl2.6H2O. The tubes were incubated in the dark at 27-28° C. After 10 to 14 days, seedlings are collected, the hypocotyls of the seedlings were cut in segments of about 1 cm and incubated on medium 104 (without plant hormones) at 28° C. under a regime of 16 hr light and 8 hr dark. Every three weeks, the segments were transferred to fresh medium, until embryogenic callus was formed (usually after about 9 weeks). This callus was removed from the explants and cultured further on medium 104.\nAgrobacterium strain A 3311 cells were grown on AB medium or MAG medium, collected and resuspended in M104 liquid medium, pH 5.2 (either with or without 100 μM acetosyringone (AS)) or MAG medium at a density of about 1×10^9 CFU/ml. Small embryogenic cotton callus clumps were collected, washed in liquid medium 104 at pH 5.2, and immersed in the Agrobacterium suspension for about 20 minutes. The infected embryogenic calli were than transferred to solid medium 104, pH 5.2, supplemented with either 100 μM AS, 0.5 g/l casamino acids, 100 μM AS and 0.5 g/l casamino acids, or not supplemented at all, and incubated for cocultivation during 4 days in the dark at about 24° C.\nAfter the cocultivation phase, the callus clumps were transferred to selective medium 104 supplemented with 50 mg/l kanamycin and 500mg/l Claforan.\nAt different time intervals after the cocultivation, samples of embryogenic callus were collected and subjected to a β-glucuronidase assay, using a chromogenic substrate as described by Jefferson et al. (1987; Plant Mol. Biol. Rep. 5: 387-405). The results of these tests are summarized in table 1, and are expressed as the percentage of calli expressing GUS-positive spots.\nAs a control, experiments were included using tobacco leaf discs co-cultivated with A3311, using mock-inoculated tobacco leaf discs or using mock-inoculated embryogenic cotton callus.",
  "key": {"[1]": {"details": "100 μM AS only in A3311 resuspension medium M104, cocultivation medium M104 not supplemented"}, "[2]": {"details": "A3311 resuspended in M104 + 100 μM AS, supplement in cocultivation medium M104"}, "[3]": {"details": "A3311 resuspended in M104, supplement in cocultivation medium M104"}, "[4]": {"details": "A3311 resuspended in MAG, supplement in cocultivation medium M104"}, "[5]": {"details": "no Agrobacterium (mock-inoculated), supplement in cocultivation medium M104"}},
  "note": "Where “and” joins values, the source holds several entries; their conditions need not be identical. Equal entries are not always repeated.",
  "data": [
    {"smiles": "COc1cc(C(C)=O)cc(OC)c1O", "note": "[AS, 3,5-dimethoxy-4-hydroxyacetophenone]", "values": [
      {"measurement": "percentage of calli expressing GUS-positive spots, 4 weeks", "setting": "[1]", "result": 0, "unit": "%"},
      {"measurement": "percentage of calli expressing GUS-positive spots, 6 weeks", "setting": "[1]", "result": 0, "unit": "%"},
      {"measurement": "percentage of calli expressing GUS-positive spots, 8 weeks", "setting": "[1]", "result": "Dead"},
      {"measurement": "percentage of calli expressing GUS-positive spots, 4 days", "setting": "[1]", "result": 0, "unit": "%"},
      {"measurement": "percentage of calli expressing GUS-positive spots, 11 days", "setting": "[1]", "result": 0, "unit": "%"},
      {"measurement": "percentage of calli expressing GUS-positive spots, 8 weeks", "setting": "[2]", "result": "90% and 50%"},
      {"measurement": "percentage of calli expressing GUS-positive spots, 11 days", "setting": "[2]", "result": "70% and 90%"},
      {"measurement": "percentage of calli expressing GUS-positive spots, 6 weeks", "setting": "[3]", "result": "15% and 25%"},
      {"measurement": "percentage of calli expressing GUS-positive spots, 8 weeks", "setting": "[3]", "result": 20, "unit": "%"},
      {"measurement": "percentage of calli expressing GUS-positive spots, 11 days", "setting": "[3]", "result": "50% and 90%"},
      {"measurement": "percentage of calli expressing GUS-positive spots, 4 days", "setting": "A3311 resuspended in MAG, supplement in cocultivation medium M104 (100 μM AS and/or 0.5 g/l cas. acids)", "result": 90, "unit": "%"},
      {"measurement": "percentage of calli expressing GUS-positive spots, 4 weeks", "setting": "[4]", "result": 50, "unit": "%"},
      {"measurement": "percentage of calli expressing GUS-positive spots, 6 weeks", "setting": "[4]", "result": "50% and 90%"},
      {"measurement": "percentage of calli expressing GUS-positive spots, 8 weeks", "setting": "[4]", "result": "90% and 80%"},
      {"measurement": "percentage of calli expressing GUS-positive spots, 11 days", "setting": "[4]", "result": 90, "unit": "%"},
      {"measurement": "need for inclusion during Agrobacterium mediated transformation of embryogenic callus", "setting": "both for transient expression and after prolonged cultivation of the transformed calli", "result": "required"},
      {"measurement": "percentage of calli expressing GUS-positive spots, 4 days", "setting": "no Agrobacterium (mock-inoculated), supplement in cocultivation medium M104 (100 μM AS and/or 0.5 g/l cas. acids)", "result": 0, "unit": "%"},
      {"measurement": "percentage of calli expressing GUS-positive spots, 4 weeks", "setting": "[5]", "result": 0, "unit": "%"},
      {"measurement": "percentage of calli expressing GUS-positive spots, 6 weeks", "setting": "[5]", "result": 0, "unit": "%"},
      {"measurement": "percentage of calli expressing GUS-positive spots, 8 weeks", "setting": "[5]", "result": "Dead"},
      {"measurement": "percentage of calli expressing GUS-positive spots, 11 days", "setting": "[5]", "result": 0, "unit": "%"}
    ]}
  ]
}
